We go through 1 substance from patent US8158577B2, “Modulation of cartilage homeostasis by active domains of cell binding extracellular matrix molecules” (priority 2004, dated 2012).

Entries after “also recorded” stand apart in the source; their conditions may differ.

For one experiment, the system named is K105 cells. The experiment is described as follows: Adhesion of K105 cells to collagen type II in the presence of synthetic peptide (FIG. 5C-5D). The conditions noted are these: peptide 250 μg/ml, 1 hour at 37° C. Format: cell-based, human. The method, then:
Tissue culture 48-wells dishes (Nunclon, Nunc, Denmark) were coated overnight with 5 μg/ml chondroadherin in 4M Guanidine-HCl, 50 mM sodium acetate, pH 5.8, or for native protein in PBS. Alternatively coating was with 5 μg/ml collagen type II in PBS followed by after-coating with 0.5% BSA in PBS for 3 hours. Collagen type II was isolated from bovine nasal cartilage by pepsin digestion (11). Bacterially expressed chondroadherin was isolated as described above. Recombinant chondroadherin expressed in EBNA cell was cloned and purified as described elsewhere (8).
To test cell binding, the chondrosarcoma cells or bovine chondrocytes were suspended in PBS containing 0.1% BSA, 25 U/ml collagenase and added to the wells (50,000/well), in the absence or presence of various peptide pools or the synthetic peptides (200, 100, 50, 25, 12.5 μg/ml). Non-adherent cells were removed after 1 hour and adhesion was determined by measuring lysosomal N-acetylglucosaminidase (12). Adhesion and spreading was visualized by light microscopy. […]
Tissue culture dishes were coated with 5 μg/ml chondroadherin expressed in E. coli or collagen type II and blocked for non-specific binding with BSA. […] Spreading was visualized by light microscopy, and adhesion was determined by analyzing lysosomal hexosaminidase. Adhesion is expressed as number of cells where the data represent the average of two wells. […]

A short description of experiment [1]: Heparin binding on Heparin-Sepharose. The conditions noted are these: eluted with NaCl (0.5, 1, 2M); Western blot or MALDI-TOF MS. The method, then:
Intact recombinant protein (10 μg, EBNA-cell expressed) diluted in PBS was passed over Heparin-Sepharose (Amersham Pharmacia) (1 ml), washed with 20 volumes of PBS and eluted with 2 M NaCl (6×1 ml). Eluted material was precipitated with ethanol, separated by SDS-PAGE (10%) and visualized by western blot (CHAD ab α-80, Larsson et al). The peptide CKFPTKRSKKAGRH (SEQ ID No:7) was diluted in PBS and passed over heparin-sepharose (100 μl), the column was washed with 20 volumes PBS and bound material eluted with 0.5, 1, and 2M NaCl (3 column volumes of each).
Recombinant chondroadherin (10 or 100 μg) expressed in EBNA-cells was passed over Heparin-Sepharose-column (Pharmacia). The column was washed and eluted with 2M NaCl in PBS. Eluted material was separated on SDS-PAGE (10%) and detected by western blot using a chondroadherin antibody (see FIG. 4). The band at 36 kDa represents chondroadherin ant the band at 72 kDa represents a dimer of chondroadherin.
The candidate peptide CKFPTKRSKKAGRH (SEQ ID No: 7) was synthesized. The ability of the peptide to bind heparin was confirmed on heparin-sepharose, where material eluted with 0.5, 1 and 2M NaCl was identified by MALDI-TOF MS (data not shown).
(A western blot detects proteins with antibodies after separation by electrophoresis.)

For the substance H-CKFPTKRSKKAGRH-OH [SEQ ID No. 7], in the experiment on K105 cells, the “k105 cell adhesion to collagen type II in the presence of peptide” value is recorded as “not significantly affected”. In experiment [1], the binding to heparin-sepharose result is “confirmed; also recorded: bind heparin”.
